In patent US20240166602A1, “SUBSTITUTED DIARYL COMPOUND AS WELL AS PREPARATION METHOD AND APPLICATION THEREOF” (SHANDONG FIRST MEDICAL UNIV & SHANDONG ACADEMY OF MEDICAL …, priority 2021, published 2024):
“Also recorded” adds a separate entry of the source.

Legend:
Assay type in all cases: cell-based
[1] = test system: human ovarian cancer (SKOV3) cells; assay: MTT tumor cell growth inhibition, human ovarian cancer (SKOV3); conditions: Homo sapiens, SK-OV-3; SKOV3, 48 h culture, MTT method; read-out: IC50 value of target compound against cancer cell proliferation, SKOV3
Experimental: (§1) Dissolve CHJ compound series with dimethyl sultbxide (DMSO, final concentration 0.4%), and use RPMI-1640 culture medium containing 15% fetal calf serum to prepare 1 mg/mL solution for future use. During drug administration in groups, use the culture medium to dilute it to the concentration needed.
(§2) Cell lines: human lung cancer (A549), Inman ovarian cancer (SKOV3), human melanoma (A375) and human colon cancer (LOVO) cell lines, all purchased from the Cell Bank of the Chinese Academy of Sciences, DMEM containing 15% fetal bovine serum (High Glucose) culture medium, placed in a 37° C., 5% CO2 incubator.
(§3) MTT is an oxidizing yellow dye with the chemical name of 3-(4,5-dimethyl-2-thiazolyl)-2,5-diphenyl-2-H-tetrazoliumbromide tetrazole bromide. The MMT method, also known as the MTT colorimetric method, can test the survival and growth of cells. The method is simple and easily accessible and often used to screet the substance with cytotoxic activity. The basic principle of testing, is that succinodehydrogenase can reduce exogenous MIT so that MTT is reduced to blueviolet crystal Formazan insoluble to water. The crystal deposits in cells. The succinodehydrogenase exists in the mitochondria of living cells, not in the dead cells. Therefore, the chromogenic reaction can only take place in living cells. Then, dissolve the blueviolet crystal Formazan contained in cells with dimethyl sulfoxide (DMSO), and measure its absorbancy with microplate reader so that the count of living cells is reflected indirectly. Within the scope of certain cell count, the amount of blueviolet crystal Formazan formed is positively correlated to the count of living cells.
(§4) Human lung cancer (A549), human ovarian cancer (SKOV3), human melanoma (A375) and human colon cancer (LOVO) ceilsare all adherent. Based on the growth rate of tumor cells, wash the adherent tumor cells in the logarithmic phase and digest them in 0.25% EDTA pancreatic enzyme. Adjust the cell count to 1×10^5/mL and inoculate the cells in 96-pore plate, each pore containing 100 μL. Culture the cells in the 37° C. CO2 incubator, and administer the drug 24 h later. Add pharmaceutical (CJH compound series) of different concentrations to the administration group. Set up 5 dosage groups for each pharmaceutical, respectively 100, 10, 1, 0.1, 0.01 μmol/L. Set up three complex pores for each concentration. Set up blank control, DMSO (0.8%) solvent control and cis-platinum positive control. After 48 h of culture in the 37 ° C. incubator containing 5% CO2, measure the OD value through MTT method and calculate the cell inhibition ratio.
(§5) After 48 h of culture of human lung cancer (A549), human ovarian cancer (SKOV3). human melanoma (A375) and human colon cancer (LOVO) cells, stop it and add 10 μL 0.5% MTT solution to each pore. Place it in the CO2 incubator for 4 h. Remove the liquid from each pore, respectively add 0.2 mL DMSO solution, and oscillate it adequately on the table concentrator under low frequency so that the blueviolet crystal Formazan is dissolved adequately. Place it in the microplate reader and record the OD value at the wavelength of […]. Calculate the average OD value of three parallel pores of different concentrations, and calculate the cell inhibition ratio and IC50 of each tested pharmaceutical under different concentrations based on the average.
(§6) Inhibition ratio (%)=[1-tested sample OD/negative control group OD]×100%.

[2] = test system: human melanoma (A375) cells; assay: MTT tumor cell growth inhibition, human melanoma (A375); conditions: Homo sapiens, A-375; A375, 48 h culture, MTT method; read-out: IC50 value of target compound against cancer cell proliferation, A375
Experimental: as §1, §2, §3, §4, §5, §6

[3] = test system: human lung cancer (A549), human ovarian cancer (SKOV3), human melanoma (A375) and human colon cancer (LOVO) cells; assay: MTT tumor cell growth inhibition, overall comment on the four cell lines; conditions: summary of the IC50 data over A549, SKOV3, A375, LOVO
Experimental: as §1, §2, §3
as §4, with “After 48 h of culture in the 37 ° C. incubator containing 5% CO2, measure the OD value through MTT method and calculate the cell inhibition ratio.” left out
After 48 h of culture of human lung cancer (A549), human ovarian cancer (SKOV3). human melanoma (A375) and human colon cancer (LOVO) cells, stop it and add 10 μL 0.5% MTT solution to each pore. […] Place it in the microplate reader and record the OD value at the wavelength of […]. […]

[4] = test system: human colon cancer (LOVO) cells; assay: MTT tumor cell growth inhibition, human colon cancer (LOVO); conditions: Homo sapiens, 48 h culture, MTT method, read-out: IC50 value of target compound against cancer cell proliferation, LOVO
Experimental: as §1, §2, §3, §4, §5, §6

[5] = test system: human lung cancer (A549) cells; assay: MTT tumor cell growth inhibition, human lung cancer (A549); conditions: Homo sapiens; A549, 48 h culture, MTT method; read-out: IC50 value of target compound against cancer cell proliferation, A549
Experimental: as §1, §2, §3, §4, §5, §6

`CCCc1ccc(OCC(O)CN(C)Cc2ccc(OCCN3CCC(C)CC3)c(OC)c2)c(OC)c1` (stereo not shown) [CHJ03011, 1-((3-methoxy-4-(2-(4-methylpiperidin-1-yl)ethoxy)benzyl)(methyl)amino)-3-(2-methoxy-4-propylphenoxy)propan-2-ol] was tested, and the IC50 [1] was 21.2 ± 1.08 µM, the IC50 [2] was 1.82 ± 1.23 µM and the “anti-cancer activity, in words” value [3] was “still effective against cancer”. For the same compound, the IC50 [4] was 15.2 ± 1.78 µM and the IC50 [5] was 10.56 ± 0.02 µM.

`COc1cc(CN(C)CC(O)COc2c(Br)cc(Br)cc2Br)ccc1OCCN1CCC(C)CC1` (stereo not shown) [CHJ04022, 1-((3-methoxy-4-(2-(4-methylpiperidin-1-yl)ethoxy)benzyl)(methy)amino)-3-(2,4,6-tribromnophenoxy)propan-2-ol] was tested, and the IC50 [1] was 1.03 ± 0.24 µM, the IC50 [2] was 0.05 ± 0.01 µM and the “anti-cancer activity, in words” value [3] was “the most active, as active as the cis-platinum in the control group”. The IC50 [4] was 0.69 ± 0.03 µM and the IC50 [5] was 1.88 ± 0.19 µM.

`COc1cc(CN(C)CC(O)COc2c(Br)cc(Br)cc2Br)ccc1OCCN1CCCC1` (stereo not shown) [CHJ04068, 1-((3-methoxy-4-(2-(pyrrolidin-1-yl)ethoxy)henzyl)(methyl)amino)-3-(2,4,6-tribromophenoxy)propan-2-ol] was tested, and the IC50 [1] was 4.21 ± 1.23 µM, the IC50 [2] was 1.54 ± 1.34 µM and the “anti-cancer activity, in words” value [3] was “lowered prominently; also recorded: the most active, as active as the cis-platinum in the control group”. For the same compound, the IC50 [4] was 0.52 ± 0.4 µM and the IC50 [5] was 5.46 ± 1.76 µM.

For `COc1cc(CN(C)CC(O)COc2ccc(NC(C)=O)cc2)ccc1OCCN1CCC(C)CC1` (stereo not shown) [CHJ04061, N-(4-2-hydroxy 3-((3-methoxy-4-(2-(4-methylpiperidin-1-yl)ethoxy)benzyl)(methyl)amino)propoxy)phenypacetamide], the IC50 [1] was 143 ± 3.1 µM, the “anti-cancer activity, in words” value [3] was “lowered prominently” and the IC50 [4] was 97.1 ± 4.21 µM. The IC50 [5] was 333.1 ± 2.7 µM.
